Among the test systems are UACC-62 melanoma; 786-0 renal; NCI-H23 lung; MDA-MB-231 breast; SNB-19 CNS; HOP-62 NSCLC; NCI-H226 lung; SK-MEL-5 melanoma; EKVX NSCLC; IGROV1 ovarian; OVCAR-8 ovarian; KM12 colon; RPMI-8226 leukemia; NCI-H460 lung; HOP-92 NSCLC; SK-OV-3 ovarian.
What all share (assay): growth of human tumour cells (NCI), 48 h

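Test compounds were applied to cells in 96-well plates for 48 hours at 5 doses. TGI: concentration producing complete growth inhibition.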

`CCOC(=O)c1c(NC(=S)Nc2ccccc2)sc2c1CCN(C)C2`: the TGI in the test on UACC-62 melanoma, in the test with 786-0 renal, with NCI-H23 lung, in the test on MDA-MB-231 breast, in the test on SNB-19 CNS and with HOP-62 NSCLC was above 100 µM in each case. Moreover, the TGI in the test on NCI-H226 lung, in the test with SK-MEL-5 melanoma, in the test with EKVX NSCLC, in the test on IGROV1 ovarian, in the test on OVCAR-8 ovarian and in the test with KM12 colon was above 100 µM in each case. The TGI with RPMI-8226 leukemia and with NCI-H460 lung was above 100 µM each time.

As for `COc1cccc([C@@H]2C/C(=N\NC(=O)C(=O)N[C@@H](C)c3ccccc3)c3ccccc3N2)c1`, the TGI in the test with UACC-62 melanoma was 38.4 µM; in the test with 786-0 renal, above 100 µM; in the test with MDA-MB-231 breast, above 100 µM; with SNB-19 CNS, above 100 µM; in the test with HOP-62 NSCLC, above 100 µM; in the test on NCI-H226 lung, above 100 µM. Also, the TGI with HOP-92 NSCLC, in the test on SK-MEL-5 melanoma, in the test on EKVX NSCLC, in the test on KM12 colon, with RPMI-8226 leukemia and with SK-OV-3 ovarian was above 100 µM throughout.

Consider `Fc1cc2nc3n(c2cc1F)C(c1c(F)cccc1F)SC3` (centres undefined), for which the TGI is above 100 µM in the test on UACC-62 melanoma; 80.6 µM in the test on 786-0 renal; above 100 µM in the test with NCI-H23 lung; above 100 µM in the test on MDA-MB-231 breast; above 100 µM in the test with SNB-19 CNS; above 100 µM with HOP-62 NSCLC. Besides, the TGI with NCI-H226 lung was above 100 µM; in the test with HOP-92 NSCLC, above 100 µM; in the test on SK-MEL-5 melanoma, 34.6 µM; in the test on IGROV1 ovarian it was above 100 µM; with OVCAR-8 ovarian, above 100 µM; with KM12 colon it was above 100 µM. Besides, the TGI with RPMI-8226 leukemia, with NCI-H460 lung and in the test on SK-OV-3 ovarian was above 100 µM each time.

On to `S=C(NCCc1ccccn1)N/N=C(\c1ccccc1)c1ccccn1`, for which the TGI in the test with UACC-62 melanoma was above 24.4 µM; with 786-0 renal it was above 56.8 µM; in the test on NCI-H23 lung, above 27.3 µM; in the test with MDA-MB-231 breast, above 100 µM; with SNB-19 CNS, above 100 µM; in the test with HOP-62 NSCLC, above 50.1 µM. In addition, the TGI with HOP-92 NSCLC was above 55.7 µM; with SK-MEL-5 melanoma it was 40.2 µM; in the test with EKVX NSCLC, above 71.6 µM; with OVCAR-8 ovarian it was 17.4 µM; in the test on KM12 colon it was above 91.5 µM; in the test with RPMI-8226 leukemia it was above 58 µM. The TGI in the test on NCI-H460 lung is above 100 µM; in the test with SK-OV-3 ovarian it was above 66.2 µM.

On to `O=C1NC(=O)C(CCC(=O)c2cccc3ccccc23)C(=O)N1`, for which the TGI in the test with UACC-62 melanoma, in the test with 786-0 renal, with NCI-H23 lung, with MDA-MB-231 breast, in the test with SNB-19 CNS and with NCI-H226 lung was above 100 µM throughout. In addition, the TGI in the test on HOP-92 NSCLC, in the test with SK-MEL-5 melanoma, with OVCAR-8 ovarian, in the test with KM12 colon, in the test with RPMI-8226 leukemia and in the test with NCI-H460 lung was above 100 µM each time. Also, the TGI in the test on SK-OV-3 ovarian was above 100 µM.

Consider `CN(C)c1ccc(N=C2N=C(Nc3ccccc3)C(=Nc3ccccc3)S2)cc1`, for which the TGI in the test with UACC-62 melanoma, with 786-0 renal, in the test with NCI-H23 lung, in the test on MDA-MB-231 breast, with SNB-19 CNS and in the test on HOP-62 NSCLC was above 100 µM each time. Besides, the TGI with NCI-H226 lung, with HOP-92 NSCLC, with SK-MEL-5 melanoma, in the test with EKVX NSCLC, with IGROV1 ovarian and with OVCAR-8 ovarian was above 100 µM each time. Moreover, the TGI in the test with KM12 colon, in the test with NCI-H460 lung and with SK-OV-3 ovarian was above 100 µM in each case.

Consider `COc1cc(/C=C2\CCC(C)C3=C2N=c2s/c(=C/c4ccc(Cl)cc4)c(=O)n2C3c2cc(OC)c(OC)c(OC)c2)cc(OC)c1OC` (centres undefined), for which the TGI in the test with UACC-62 melanoma, in the test with 786-0 renal, in the test with MDA-MB-231 breast, with SNB-19 CNS, with HOP-62 NSCLC and in the test with HOP-92 NSCLC was above 100 µM each time. The TGI in the test on SK-MEL-5 melanoma, with EKVX NSCLC, with IGROV1 ovarian, in the test on OVCAR-8 ovarian, in the test with KM12 colon and in the test with RPMI-8226 leukemia was above 100 µM throughout. In addition, the TGI in the test with SK-OV-3 ovarian is above 100 µM.

In the case of `Cc1ccc(S(=O)(=O)C2=Cc3ccccc3C2(O)c2ccccc2)cc1` (centres undefined), the TGI in the test on 786-0 renal was above 10 µM; with NCI-H23 lung it was above 100 µM; in the test with MDA-MB-231 breast, 33.3 µM; in the test on SNB-19 CNS, above 100 µM; in the test on HOP-62 NSCLC, above 10 µM; in the test with NCI-H226 lung, 64.5 µM. Further, the TGI in the test with SK-MEL-5 melanoma is 31.2 µM; in the test with EKVX NSCLC it was 76 µM; in the test on IGROV1 ovarian, above 100 µM; in the test with OVCAR-8 ovarian it was 81.2 µM; in the test with KM12 colon, 37.6 µM; in the test with RPMI-8226 leukemia, 44.7 µM. Also, the TGI is 54.6 µM in the test on NCI-H460 lung and 79.2 µM in the test with SK-OV-3 ovarian.

For the compound `CCOC(=O)c1cc(=O)c2cccc3c2n1CCS3`, the TGI in the test on UACC-62 melanoma, in the test on 786-0 renal, in the test with NCI-H23 lung, in the test on MDA-MB-231 breast, with SNB-19 CNS and in the test with HOP-62 NSCLC was above 100 µM in each case. Besides, the TGI in the test with NCI-H226 lung, in the test with HOP-92 NSCLC, with SK-MEL-5 melanoma, with EKVX NSCLC, in the test with IGROV1 ovarian and in the test on OVCAR-8 ovarian was above 100 µM each time. Besides, the TGI in the test on KM12 colon, in the test on NCI-H460 lung and in the test with SK-OV-3 ovarian was above 100 µM each time.

`Cc1cc(C)c(/C=C2\C(=O)Nc3ccccc32)[nH]1`: the TGI in the test with UACC-62 melanoma, in the test with 786-0 renal, in the test with NCI-H23 lung, in the test on MDA-MB-231 breast, in the test on SNB-19 CNS and in the test with HOP-62 NSCLC was above 100 µM throughout. Besides, the TGI with NCI-H226 lung, with HOP-92 NSCLC, in the test with SK-MEL-5 melanoma, in the test with EKVX NSCLC, with OVCAR-8 ovarian and with RPMI-8226 leukemia was above 100 µM each time. The TGI with NCI-H460 lung and in the test on SK-OV-3 ovarian was above 100 µM each time.

For the origin of these results see PubChem BioAssay (NCI).
